Where two headings read alike, the source gives them in different places.
What was measured:
[1] = amide bond
[2] = biological target: T1, CFTR (Homo sapiens, UniProt P13569); assay: Membrane Potential Dye, Enteroid Assay A; format: cell-based
Procedure: Base medium (ADF+++) consisted of Advanced DMEM/Ham's F12, 2 mM Glutamax, 10 mM HEPES, 1 µg/mL penicillin/streptomycin.
Intestinal enteroid maintenance medium (IEMM) consisted of ADF+++, 1× B27 supplement, 1× N2 supplement, 1.25 mM N-acetyl cysteine, 10 mM Nicotinamide, 50 ng/mL hEGF, 10 nM Gastrin, 1 pg/mL hR-spondin-1, 100 ng/mL hNoggin, TGF-b type 1 inhibitor A-83-01, 100 μg/mL Primocin, […] P38 MAPK inhibitor SB202190.
Bath 1 Buffer consisted of 1 mM MgCl2, 160 mM NaCl, 4.5 mM KCl, 10 mM HEPES, 10 mM Glucose, 2 mM CaCl2).
Chloride Free Buffer consisted of 1 mM Magnesium Gluconate, 2 mM Calcium Gluconate, 4.5 mM Potassium Gluconate, 160 mM Sodium Gluconate, 10 mM HEPES, 10 mM Glucose.
Bath1 Dye Solution consisted of Bath 1 Buffer, 0.04% Pluronic F127, […] Methyl Oxonol, 30 μM CaCCinh-A01, 30 μM Chicago Sky Blue.
Chloride Free Dye Solution consisted of Chloride Free Buffer, 0.04% Pluronic F127, 20 μM Methyl Oxonol, 30 μM CaCCinh-A01, 30 μM Chicago Sky Blue.
Chloride Free Dye Stimulation Solution consisted of Chloride Free Dye Solution, 10 μM forskolin, 100 μM IBMX, and 300 nM Compound III.
Human intestinal epithelial enteroid cells were obtained from the Hubrecht Institute for Developmental Biology and Stem Cell Research, Utrecht, The Netherlands and expanded in T-Flasks as previously described (Dekkers J F, Wiegerinck C L, de Jonge H R, Bronsveld I, Janssens H M, de Winter-de Groot K M, Brandsma A M, de Jong N W M, Bijvelds M J C, Scholte B J, Nieuwenhuis E E S, van den Brink S, Clevers H, van der Ent C K, Middendorp S and M Beekman J M. A functional CFTR assay using primary cystic fibrosis intestinal organoids. Nat Med. 2013 July; 19(7):939-45.).
Cells were recovered in cell recovery solution, collected by centrifugation at 650 rpm for 5 min at 4° C., resuspended in TryPLE and incubated for 5 min at 37° C. Cells were then collected by centrifugation at 650 rpm for 5 min at 4° C. and resuspended in IEMM containing 10 μM ROCK inhibitor (RI). The cell suspension was passed through a 40 μm cell strainer and resuspended at 1×10^6 cells/mL in IEMM containing 10 μM RI. Cells were seeded at 5000 cells/well into multi-well plates and incubated for overnight at 37° C., 95% humidity and 5% CO2 prior to assay.
Enteroid cells were incubated with test compound in IEMM for 18-24 hours at 37° C., 95% humidity and 5% CO2. […] Briefly, cells were washed 5 times in Bath 1 Buffer. Bath 1 Dye Solution was added, and the cells were incubated for 25 min at room temperature. Following dye incubation, cells were washed 3 times in Chloride Free Dye Solution. Chloride transport was initiated by addition of Chloride Free Dye Stimulation Solution and the fluorescence signal was read for 15 min. […] Chloride transport was then expressed as a percentage of the chloride transport following treatment with 3 μM (S)—N-((6-aminopyridin-2-yl)sulfonyl)-6-(3-fluoro-5-isobutoxyphenyl)-2-(2,2,4-trimethylpyrrolidin-1-yl)nicotinamide, 3 μM (R)-1-(2,2-difluorobenzo[d][1,3]dioxol-5-yl)-N-(1-(2,3-dihydroxypropyl)-6-fluoro-2-(1-hydroxy-2-methylpropan-2-yl)-1H-indol-5-yl)cyclopropanecarboxamide and 300 nM acute N-[2,4-bis(1,1-dimethylethyl)-5-hydroxyphenyl]-1,4-dihydro-4-oxoquinoline-3-carboxamide triple combination control (% Activity).

[3] = biological target: T1, CFTR; assay: Membrane Potential Dye, Enteroid Assay B; format: cell-based; details: for EC50: read-out: Ent. B EC50
Procedure, shortened: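 Membrane-potential fluorescence read over 15 min after chloride-free stimulation (forskolin 10 μM, IBMX 100 μM, Compound III 300 nM), with CaCCinh-A01 and Chicago Sky Blue present. Enteroids had 18-24 h compound exposure at 37 °C; activity given as % of the triple-combination corrector/potentiator reference response.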

[4] = biological target: T2, CFTR (Homo sapiens, UniProt P13569, DEL508-508); assay: HBE Assay: Ussing chamber assay of CFTR-mediated short-circuit currents in F508del/MF-HBE cells with 1 μM Ivacaftor; format: cell-based; details: with 1 μM Ivacaftor, 18-24 hours, 20% human serum
T2 construct: endogenous in cells; host or cells: primary human bronchial epithelial cells, F508del/MF genotype
Procedure, shortened: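 F508del/MF-HBE cells at air-liquid interface >14 days were incubated 18-24 h at 37° C with corrector (concentration range or fixed 10 μM) plus 1 μM Ivacaftor in 20% human serum, compounds kept throughout. Ussing chamber, Vhold=0 mV, 37° C, apical amiloride 30 μM; ISC (μA/cm^2) from peak 20 μM forskolin response to steady state after CFTR inhibitor cocktail.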

T2 sequence (P13569 with tags, fused parts or gaps DEL508-508): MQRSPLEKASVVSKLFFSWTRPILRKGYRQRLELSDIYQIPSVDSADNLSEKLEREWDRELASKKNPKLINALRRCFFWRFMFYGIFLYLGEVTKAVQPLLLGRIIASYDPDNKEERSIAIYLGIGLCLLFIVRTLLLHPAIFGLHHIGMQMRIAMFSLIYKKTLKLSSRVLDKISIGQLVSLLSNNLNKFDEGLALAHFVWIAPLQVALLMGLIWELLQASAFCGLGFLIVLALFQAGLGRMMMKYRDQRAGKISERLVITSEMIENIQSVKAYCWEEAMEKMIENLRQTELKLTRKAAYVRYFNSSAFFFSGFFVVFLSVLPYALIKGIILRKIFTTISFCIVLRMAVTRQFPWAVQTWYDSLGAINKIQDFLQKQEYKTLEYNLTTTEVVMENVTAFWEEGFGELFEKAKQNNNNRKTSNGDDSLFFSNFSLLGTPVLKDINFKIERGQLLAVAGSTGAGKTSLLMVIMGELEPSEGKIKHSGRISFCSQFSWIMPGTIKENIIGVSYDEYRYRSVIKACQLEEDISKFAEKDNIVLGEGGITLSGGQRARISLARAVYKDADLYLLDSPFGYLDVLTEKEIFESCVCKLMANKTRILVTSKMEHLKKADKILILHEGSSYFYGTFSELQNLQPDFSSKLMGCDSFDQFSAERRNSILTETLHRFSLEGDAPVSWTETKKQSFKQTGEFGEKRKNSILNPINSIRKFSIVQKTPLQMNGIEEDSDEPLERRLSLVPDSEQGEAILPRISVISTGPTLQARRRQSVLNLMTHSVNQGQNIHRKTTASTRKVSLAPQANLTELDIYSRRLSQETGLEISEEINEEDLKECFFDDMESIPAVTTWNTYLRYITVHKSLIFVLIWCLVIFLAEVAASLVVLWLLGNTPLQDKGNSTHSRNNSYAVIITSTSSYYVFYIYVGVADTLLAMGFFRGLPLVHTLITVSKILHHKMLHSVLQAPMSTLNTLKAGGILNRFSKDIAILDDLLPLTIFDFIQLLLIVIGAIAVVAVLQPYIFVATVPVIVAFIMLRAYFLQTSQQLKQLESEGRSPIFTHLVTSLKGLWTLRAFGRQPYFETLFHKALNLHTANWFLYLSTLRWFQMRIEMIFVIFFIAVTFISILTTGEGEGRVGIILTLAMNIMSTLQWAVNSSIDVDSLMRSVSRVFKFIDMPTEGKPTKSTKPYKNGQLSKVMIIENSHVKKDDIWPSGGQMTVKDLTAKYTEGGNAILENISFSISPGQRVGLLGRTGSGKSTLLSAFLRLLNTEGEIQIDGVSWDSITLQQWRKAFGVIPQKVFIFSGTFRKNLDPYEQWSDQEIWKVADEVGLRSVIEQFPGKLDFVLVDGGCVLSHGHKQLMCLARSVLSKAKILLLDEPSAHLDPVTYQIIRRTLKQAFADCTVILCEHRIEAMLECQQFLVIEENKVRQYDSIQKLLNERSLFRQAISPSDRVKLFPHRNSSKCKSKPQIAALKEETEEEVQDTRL
T1 sequence (P13569 with tags, fused parts or gaps DEL508-508): as above

Cc1ccccc1-c1nc2nc(c1C(C)(C)C)OCC1CN(CCN1CCC1(C(F)(F)F)CC1)C(=O)c1cccc(c1)S(=O)(=O)N2 (stereo not drawn) [Compound 33, 13-tert-Butyl-12-(2-methylphenyl)-18-{2-[1-(trifluoromethyl)cyclopropyl]ethyl}-15-oxa-8λ^6-thia-1,9,11,18,22-pentaazatetracyclo[15.3.1.13,7.110,14]tricosa-3(23),4,6,10(22),11,13-hexaene-2,8,8-trione]
ring closure, yield after HPLC ([1]; from Cc1ccccc1-c1nc(NS(=O)(=O)c2cccc(C(=O)O)c2)nc(OCC2CNCCN2CCC2(C(F)(F)F)CC2)c1C(C)(C)C, 14-membered ring, HATU/DIEA, DMF, 25.0 °C, 1.0 h, 3 steps): 8%
Ent. A Max Activity [2]: +++ (+++ is >60%)
EC50 ([2]; read-out: Ent. A EC50): 1000 to 3000 nM

Cc1cccc(C)c1-c1nc2nc(c1C)OC[C@@H](CC1(C(F)(F)F)CC1)N(C1CC3(CC3)C1)C(=O)c1cccc(c1)S(=O)(=O)N2 [Compound 50, (11R)-6-(2,6-Dimethylphenyl)-7-methyl-2,2-dioxo-12-spiro[2.3]hexan-5-yl-11-[[1-(trifluoromethyl)cyclopropyl]methyl]-9-oxa-2λ^6-thia-3,5,12,19-tetrazatricyclo[12.3.1.14,8]nonadeca-1(18),4(19),5,7,14,16-hexaen-13-one]
ring closure, yield after HPLC ([1]; from Cc1cccc(C)c1-c1nc(NS(=O)(=O)c2cccc(C(=O)O)c2)nc(OC[C@@H](CC2(C(F)(F)F)CC2)NC2CC3(CC3)C2)c1C, 13-membered ring, HATU/DIEA, DMF, 14.4 mM, 25.0 °C, 23.0 h): 44%
Ent. B Max Activity [3]: +++ (+++ is >60%)
EC50 [3]: < 1000 nM

Cc1cccc(C)c1-c1nc2nc(c1F)O[C@H](c1ccc(C(C)(C)C)cc1)[C@@H](C)NC(=O)c1cccc(c1)S(=O)(=O)N2 [Compound 167, (10R,11R)-10-(4-tert-Butylphenyl)-6-(2,6-dimethylphenyl)-7-fluoro-11-methyl-2,2-dioxo-9-oxa-2λ^6-thia-3,5,12,19-tetrazatricyclo[12.3.1.14,8]nonadeca-1(18),4(19),5,7,14,16-hexaen-13-one]
ring closure, yield after HPLC ([1]; 13-membered ring, NaOtBu then HATU, THF/DMF, 30.0 mM, 2 steps): 30%
Ent. B Max Activity [3]: +++ (+++ is >60%)
EC50 [3]: < 1000 nM

CCc1c2nc(nc1-c1c(C)cccc1C)NS(=O)(=O)c1cccc(c1)C(=O)N[C@H](CC(C)(C)C)CO2 [Compound 161, (11R)-6-(2,6-Dimethylphenyl)-11-(2,2-dimethylpropyl)-7-ethyl-9-oxa-2λ^6-thia-3,5,12,19-tetraazatricyclo[12.3.1.14,8]nonadeca-1(18),4(19),5,7,14,16-hexaene-2,2,13-trione]
ring closure, yield after HPLC ([1]; from CCc1c(OC[C@H](N)CC(C)(C)C)nc(NS(=O)(=O)c2cccc(C(=O)O)c2)nc1-c1c(C)cccc1C, 13-membered ring, COMU/DIEA, DMF, 20.3 mM, 15.0 h): 41%
Ent. B Max Activity [3]: +++ (+++ is >60%)
EC50 [3]: < 1000 nM

Cc1cccc(C)c1-c1nc2nc(c1C)OCCCNC(=O)c1cccc(c1)S(=O)(=O)N2 [Compound 36, 6-(2,6-Dimethylphenyl)-7-methyl-9-oxa-2λ^6-thia-3,5,13,20-tetraazatricyclo[13.3.1.14,8]icosa-1(19),4,6,8(20),15,17-hexaene-2,2,14-trione]
ring closure, yield after HPLC ([1]; from Cc1cccc(C)c1-c1nc(NS(=O)(=O)c2cccc(C(=O)O)c2)nc(OCCCN)c1C, 14-membered ring, HATU/DIEA, DMF, 49.0 mM, 25.0 °C, 1.0 h): 46%
Ent. B Max Activity [3]: + (+ is <30%)
EC50 [3]: 3000 to 30000 nM

Cc1cccc(C)c1-c1nc2nc(c1C)OC[C@@H](CC(C)C)N(C1CC3(CC3)C1)C(=O)c1cccc(n1)S(=O)(=O)N2 [Compound 118, (11R)-6-(2,6-Dimethylphenyl)-7-methyl-11-(2-methylpropyl)-12-{spiro[2.3]hexan-5-yl}-9-oxa-2λ^6-thia-3,5,12,18,19-pentaazatricyclo[12.3.1.14,8]nonadeca-1(17),4(19),5,7,14(18),15-hexaene-2,2,13-trione]
ring closure, yield after HPLC ([1]; from Cc1cccc(C)c1-c1nc(NS(=O)(=O)c2cccc(C(=O)O)n2)nc(OC[C@@H](CC(C)C)NC2CC3(CC3)C2)c1C, 13-membered ring, HATU/DIEA, DMF, 12.2 mM, 17.0 h): 42%
Ent. B Max Activity [3]: +++ (+++ is >60%)
EC50 [3]: < 1000 nM

Cc1c2nc(nc1-c1ccccc1C(C)C)NS(=O)(=O)c1cccc(c1)C(=O)N(Cc1ncc(N3CCOCC3)cn1)[C@H](CC(C)(C)C)CO2 [Compound 173, (11R)-11-(2,2-Dimethylpropyl)-7-methyl-12-{[5-(morpholin-4-yl)pyrimidin-2-yl]methyl}-6-[2-(propan-2-yl)phenyl]-9-oxa-2λ^6-thia-3,5,12,19-tetraazatricyclo[12.3.1.14,8]nonadeca-1(17),4(19),5,7,14(18),15-hexaene-2,2,13-trione]
ring closure, yield after HPLC ([1]; from Cc1c(OC[C@@H](CC(C)(C)C)NCc2ncc(N3CCOCC3)cn2)nc(NS(=O)(=O)c2cccc(C(=O)O)c2)nc1-c1ccccc1C(C)C, 13-membered ring, CDMT/NMM, DMF, 57.0 mM, 19.0 h, 2 steps): 18%
EC50 [4]: < 1000 nM
HBE Max Activity [4]: +++ (+++ is >600%)

Cc1cccc(C)c1-c1nc2nc(c1C)OC[C@@H](C)NC(=O)c1cccc(c1)S(=O)(=O)N2 [Compound 117, (11R)-6-(2,6-Dimethylphenyl)-7,11-dimethyl-9-oxa-2λ^6-thia-3,5,12,19-tetraazatricyclo[12.3.1.14,8]nonadeca-1(18),4,6,8(19),14,16-hexaene-2,2,13-trione]
ring closure, yield after HPLC ([1]; from Cc1cccc(C)c1-c1nc(NS(=O)(=O)c2cccc(C(=O)O)c2)nc(OC[C@@H](C)N)c1C, 13-membered ring, HATU/DIEA, DMF, 49.3 mM, 1.0 h): 18%
Ent. B Max Activity [3]: ++ (++ is 30-60%)
EC50 [3]: 1000 to 3000 nM

Cc1cccc(C)c1-c1nc2nc(c1C)OC[C@@H](CC(C)(C)C)N(Cc1ccc(N3CCOCC3)cn1)C(=O)c1cccc(c1)S(=O)(=O)N2 [Compound 49, (11R)-6-(2,6-Dimethylphenyl)-11-(2,2-dimethylpropyl)-7-methyl-12-{[5-(morpholin-4-yl)pyridin-2-yl]methyl}-9-oxa-2λ^6-thia-3,5,12,19-tetraazatricyclo[12.3.1.14,8]nonadeca-1(17),4(19),5,7,14(18),15-hexaene-2,2,13-trione]
ring closure, yield after HPLC ([1]; from Cc1cccc(C)c1-c1nc(NS(=O)(=O)c2cccc(C(=O)O)c2)nc(OC[C@@H](CC(C)(C)C)NCc2ccc(N3CCOCC3)cn2)c1C, 13-membered ring, CDMT/NMM, DMF, 21.0 mM, 15.0 h, 2 steps): 5%
EC50 [4]: < 1000 nM
HBE Max Activity [4]: +++ (+++ is >600%)

From US20230374038A1, “MODULATORS OF CYSTIC FIBROSIS TRANSMEMBRANE CONDUCTANCE REGULATOR” (VERTEX PHARMACEUTICALS INCORPORATED, priority 2020, published 2023)
